{"source": "patent US20030118577A1", "about": "“Use of analogues of superoxide dismutase for treating hepatocellular insufficiencies” (priority 2000, published 2003)", "key": {"[1]": {"test_system": "acute hepatic insufficiency induced by acetaminophen", "experiment": "Survival of mice after intraperitoneal acetaminophen (acute hepatic insufficiency)", "quoted_text": "The intraperitoneal injection of acetaminophen into mice induces a severe hepatotoxicity, the degree of which may be evaluated by the survival of the animals, measuring transaminase activities, and macroscopic and microscopic examination of the livers.\nThe acetaminophen in solution at 100 mg/ml in PBS at pH 7.4 is administered by the intraperitoneal route.\nIn a first series of experiments, a group of mice received a dose of 1000 mg/kg of acetaminophen; a second group received a dose of 1000 mg/kg of acetaminophen and a dose of 10 mg/kg of MnTBAP administered either 2 h before the acetaminophen or 6 h after; a control group received either MnTBAP alone (10 mg/kg), or PBS alone.\nThe survival of the animals is monitored for 24 hours after the administration of acetaminophen.\nThe effect of N-acetyl-L-cysteine (NAC), of CuDIPS, and of MnTBAP on the survival of mice after intraperitoneal injection of 1000 mg/kg of acetaminophen (APAP) was compared.\nMnTBAP, NAC, or CuDIPS are administered in the form of a bolus, preventively, 2 hours before (P) or, curatively, 6 hours after (C) the acetaminophen.\nThe survival of the animals is monitored for 24 hours after administration of acetaminophen."}, "[2]": {"test_system": "acute hepatic insufficiency induced by anti-Fas antibodies", "experiment": "Survival of mice after injection of anti-Fas antibody (fulminant hepatitis)", "format": "in vivo", "settings": "at 24 hours; 6 μg anti-Fas antibody iv; MnTBAP 10 mg/kg 2 hours beforehand; FIG. 3", "description": "The injection of these antibodies into mice causes fulminant hepatitis due to a massive apoptosis of the hepatocytes, causing the death of the mice within a few hours following the injection [OGASAWARA et al., Nature, 364, pp. 806-809, (1993); NAGATA, Prog. Mol. Subcell. Biol., 16, pp. 87-103, (1996)].\n27 control mice received, by intravenous injection, 6 μg of an anti-Fas monoclonal antibody (clone J02; PHARMINGEN) diluted in 100 μl of physiological saline; a second group of 15 mice received the same treatment, preceded by the administration, 2 hours beforehand, of 10 mg/kg of MnTBAP, as described in Example 1 above; a control group received MnTBAP alone (10 mg/kg)."}, "[3]": {"experiment": "Glutathione peroxidase activity of the mimetic", "format": "biochemical", "settings": "observed by the inventors"}, "[4]": {"test_system": "hepatocellular insufficiency induced by chronic intoxication with DMNA", "experiment": "Chronic intoxication with DMNA, histological examination", "format": "in vivo, mice", "description": "The inventors also investigated the effects of MnSOD mimetics on hepatocellular insufficiency of toxic origin which can be induced in particular by alcohol, using an experimental model of intoxication with dimethylnitrosamine (DMNA) administered at the dose of 10 mg/kg in mice. This model is similar to intoxication with alcohol because the lesions induced by DMNA and alcohol are identical.\nIntraperitoneal administration of 10 mg/kg/day of DMNA three times per week induces, in dogs and rodents, centrolobular and periportal lesions comprising fibrosis at the 4th week, and cirrhosis at the 13th week [RISTELLI et al., J. Biochem., 158, 361-367, (1976); MADDEN et al., Surgery, 68, 260-267, (1970)]."}, "[5]": {"test_system": "acute hepatic insufficiency induced by acetaminophen", "experiment": "Histological study of livers after acetaminophen", "format": "in vivo", "settings": "mice which received acetaminophen, treated with MnTBAP", "source_text": "In each of the groups, the livers of several animals were removed, in order to carry out a histological study."}, "[6]": {"settings": "known; cited from earlier work"}}}
{"smiles": "O=C(O)c1ccc(-c2c3nc(c(-c4ccc(C(=O)O)cc4)c4ccc([n-]4)c(-c4ccc(C(=O)O)cc4)c4nc(c(-c5ccc(C(=O)O)cc5)c5ccc2[n-]5)C=C4)C=C3)cc1.[Mn+3]", "note": "[MnTBAP, Mn(III) tetrakis(5,10,15,20-benzoic acid)porphyrin]", "values": [{"measurement": "percentage of surviving animals", "setting": "[1]; Group VI: APAP 1000 mg/kg, MnTBAP 20 mg/kg (P), time 0 h", "result": 100, "unit": "%"}, {"measurement": "percentage of surviving animals", "setting": "[1]; Group VI: APAP 1000 mg/kg, MnTBAP 20 mg/kg (P), time 6 h", "result": 100, "unit": "%"}, {"measurement": "percentage of surviving animals", "setting": "[1]; Group VI: APAP 1000 mg/kg, MnTBAP 20 mg/kg (P), time 8 h", "result": 100, "unit": "%"}, {"measurement": "percentage of surviving animals", "setting": "[1]; Group VI: APAP 1000 mg/kg, MnTBAP 20 mg/kg (P), time 9 h", "result": 100, "unit": "%"}, {"measurement": "percentage of surviving animals", "setting": "[1]; Group VI: APAP 1000 mg/kg, MnTBAP 20 mg/kg (P), time 10 h", "result": 100, "unit": "%"}, {"measurement": "percentage of surviving animals", "setting": "[1]; Group VI: APAP 1000 mg/kg, MnTBAP 20 mg/kg (P), time 11 h", "result": 100, "unit": "%"}, {"measurement": "percentage of surviving animals", "setting": "[1]; Group VI: APAP 1000 mg/kg, MnTBAP 20 mg/kg (P), time 12 h", "result": 100, "unit": "%"}, {"measurement": "percentage of surviving animals", "setting": "[1]; Group VI: APAP 1000 mg/kg, MnTBAP 20 mg/kg (P), time 13 h", "result": 100, "unit": "%"}, {"measurement": "percentage of surviving animals", "setting": "[1]; Group VI: APAP 1000 mg/kg, MnTBAP 20 mg/kg (P), time 14 h", "result": 100, "unit": "%"}, {"measurement": "percentage of surviving animals", "setting": "[1]; Group VI: APAP 1000 mg/kg, MnTBAP 20 mg/kg (P), time 15 h", "result": 90, "unit": "%"}, {"measurement": "percentage of surviving animals", "setting": "[1]; Group VI: APAP 1000 mg/kg, MnTBAP 20 mg/kg (P), time 16 h", "result": 90, "unit": "%"}, {"measurement": "percentage of surviving animals", "setting": "[1]; Group VI: APAP 1000 mg/kg, MnTBAP 20 mg/kg (P), time 17 h", "result": 90, "unit": "%"}, {"measurement": "percentage of surviving animals", "setting": "[1]; Group VI: APAP 1000 mg/kg, MnTBAP 20 mg/kg (P), time 18 h", "result": 90, "unit": "%"}, {"measurement": "percentage of surviving animals", "setting": "[1]; Group VI: APAP 1000 mg/kg, MnTBAP 20 mg/kg (P), time 20 h", "result": 90, "unit": "%"}, {"measurement": "percentage of surviving animals", "setting": "[1]; Group VI: APAP 1000 mg/kg, MnTBAP 20 mg/kg (P), time 22 h", "result": 90, "unit": "%"}, {"measurement": "percentage of surviving animals", "setting": "[1]; Group VI: APAP 1000 mg/kg, MnTBAP 20 mg/kg (P), time 24 h", "result": 90, "unit": "%"}, {"measurement": "percentage of surviving animals", "setting": "[1]; Group VII: APAP 1000 mg/kg, MnTBAP 10 mg/kg (C), time 0 h", "result": 100, "unit": "%"}, {"measurement": "percentage of surviving animals", "setting": "[1]; Group VII: APAP 1000 mg/kg, MnTBAP 10 mg/kg (C), time 6 h", "result": 100, "unit": "%"}, {"measurement": "percentage of surviving animals", "setting": "[1]; Group VII: APAP 1000 mg/kg, MnTBAP 10 mg/kg (C), time 8 h", "result": 100, "unit": "%"}, {"measurement": "percentage of surviving animals", "setting": "[1]; Group VII: APAP 1000 mg/kg, MnTBAP 10 mg/kg (C), time 9 h", "result": 100, "unit": "%"}, {"measurement": "percentage of surviving animals", "setting": "[1]; Group VII: APAP 1000 mg/kg, MnTBAP 10 mg/kg (C), time 10 h", "result": 94, "unit": "%"}, {"measurement": "percentage of surviving animals", "setting": "[1]; Group VII: APAP 1000 mg/kg, MnTBAP 10 mg/kg (C), time 11 h", "result": 94, "unit": "%"}, {"measurement": "percentage of surviving animals", "setting": "[1]; Group VII: APAP 1000 mg/kg, MnTBAP 10 mg/kg (C), time 12 h", "result": 81, "unit": "%"}, {"measurement": "percentage of surviving animals", "setting": "[1]; Group VII: APAP 1000 mg/kg, MnTBAP 10 mg/kg (C), time 13 h", "result": 69, "unit": "%"}, {"measurement": "percentage of surviving animals", "setting": "[1]; Group VII: APAP 1000 mg/kg, MnTBAP 10 mg/kg (C), time 14 h", "result": 69, "unit": "%"}, {"measurement": "percentage of surviving animals", "setting": "[1]; Group VII: APAP 1000 mg/kg, MnTBAP 10 mg/kg (C), time 15 h", "result": 69, "unit": "%"}, {"measurement": "percentage of surviving animals", "setting": "[1]; Group VII: APAP 1000 mg/kg, MnTBAP 10 mg/kg (C), time 16 h", "result": 56, "unit": "%"}, {"measurement": "percentage of surviving animals", "setting": "[1]; Group VII: APAP 1000 mg/kg, MnTBAP 10 mg/kg (C), time 17 h", "result": 56, "unit": "%"}, {"measurement": "percentage of surviving animals", "setting": "[1]; Group VII: APAP 1000 mg/kg, MnTBAP 10 mg/kg (C), time 18 h", "result": 56, "unit": "%"}, {"measurement": "percentage of surviving animals", "setting": "[1]; Group VII: APAP 1000 mg/kg, MnTBAP 10 mg/kg (C), time 20 h", "result": 56, "unit": "%"}, {"measurement": "percentage of surviving animals", "setting": "[1]; Group VII: APAP 1000 mg/kg, MnTBAP 10 mg/kg (C), time 22 h", "result": 56, "unit": "%"}, {"measurement": "percentage of surviving animals", "setting": "[1]; Group VII: APAP 1000 mg/kg, MnTBAP 10 mg/kg (C), time 24 h", "result": 44, "unit": "%"}, {"measurement": "percentage of surviving animals", "setting": "[1]; Group VIII: APAP 1000 mg/kg, MnTBAP 20 mg/kg (C), time 0 h", "result": 100, "unit": "%"}, {"measurement": "percentage of surviving animals", "setting": "[1]; Group VIII: APAP 1000 mg/kg, MnTBAP 20 mg/kg (C), time 6 h", "result": 100, "unit": "%"}, {"measurement": "percentage of surviving animals", "setting": "[1]; Group VIII: APAP 1000 mg/kg, MnTBAP 20 mg/kg (C), time 8 h", "result": 100, "unit": "%"}, {"measurement": "percentage of surviving animals", "setting": "[1]; Group VIII: APAP 1000 mg/kg, MnTBAP 20 mg/kg (C), time 9 h", "result": 100, "unit": "%"}, {"measurement": "percentage of surviving animals", "setting": "[1]; Group VIII: APAP 1000 mg/kg, MnTBAP 20 mg/kg (C), time 10 h", "result": 100, "unit": "%"}, {"measurement": "percentage of surviving animals", "setting": "[1]; Group VIII: APAP 1000 mg/kg, MnTBAP 20 mg/kg (C), time 11 h", "result": 100, "unit": "%"}, {"measurement": "percentage of surviving animals", "setting": "[1]; Group VIII: APAP 1000 mg/kg, MnTBAP 20 mg/kg (C), time 12 h", "result": 90, "unit": "%"}, {"measurement": "percentage of surviving animals", "setting": "[1]; Group VIII: APAP 1000 mg/kg, MnTBAP 20 mg/kg (C), time 13 h", "result": 90, "unit": "%"}, {"measurement": "percentage of surviving animals", "setting": "[1]; Group VIII: APAP 1000 mg/kg, MnTBAP 20 mg/kg (C), time 14 h", "result": 90, "unit": "%"}, {"measurement": "percentage of surviving animals", "setting": "[1]; Group VIII: APAP 1000 mg/kg, MnTBAP 20 mg/kg (C), time 15 h", "result": 90, "unit": "%"}, {"measurement": "percentage of surviving animals", "setting": "[1]; Group VIII: APAP 1000 mg/kg, MnTBAP 20 mg/kg (C), time 16 h", "result": 90, "unit": "%"}, {"measurement": "percentage of surviving animals", "setting": "[1]; Group VIII: APAP 1000 mg/kg, MnTBAP 20 mg/kg (C), time 17 h", "result": 80, "unit": "%"}, {"measurement": "percentage of surviving animals", "setting": "[1]; Group VIII: APAP 1000 mg/kg, MnTBAP 20 mg/kg (C), time 18 h", "result": 80, "unit": "%"}, {"measurement": "percentage of surviving animals", "setting": "[1]; Group VIII: APAP 1000 mg/kg, MnTBAP 20 mg/kg (C), time 20 h", "result": 70, "unit": "%"}, {"measurement": "percentage of surviving animals", "setting": "[1]; Group VIII: APAP 1000 mg/kg, MnTBAP 20 mg/kg (C), time 22 h", "result": 70, "unit": "%"}, {"measurement": "percentage of surviving animals", "setting": "[1]; Group VIII: APAP 1000 mg/kg, MnTBAP 20 mg/kg (C), time 24 h", "result": 70, "unit": "%"}, {"measurement": "death of animals", "setting": "[1]; MnTBAP alone 10 mg/kg ip, no acetaminophen, 24 hours", "result": "No death"}, {"measurement": "rate of survival", "setting": "[2]", "result": "~60", "unit": "%"}, {"measurement": "glutathione peroxidase activity", "setting": "[3]", "result": "possessed, in addition, a glutathione peroxidase activity"}, {"measurement": "appearance of hepatic lesions on histological sections", "setting": "[4]; DMNA 10 mg/kg in mice, different intoxication times", "result": "delays the appearance of hepatic lesions"}, {"measurement": "constitution of fibrosis on histological examination", "setting": "[4]; DMNA 10 mg/kg/day ip three times per week, MnTBAP 10 mg/kg ip 24 hours after each DMNA", "result": "prevents the constitution of objectively viable fibrosis"}, {"measurement": "apoptotic lesions in liver, versus untreated animals", "setting": "[5]", "result": "a lot fewer apoptotic lesions"}, {"measurement": "catalase activity", "setting": "[6]", "result": "known to possess a catalase activity"}]}
